Laboratory results from ChEMBL document CHEMBL6121003, “Design, synthesis, and pharmacological evaluation of triazine-based PI3K/mTOR inhibitors for the potential treatment of non-small cell lung cancer” (Eur J Med Chem, 2025).

Key:
[1] = target: CYP2C9 (Homo sapiens, UniProt P11712); experiment: Inhibition of CYP2C9 (unknown origin) at 10 uM relative to control; format: ADME
[2] = target: Phosphatidylinositol 4,5-bisphosphate 3-kinase catalytic subunit gamma isoform (Homo sapiens, UniProt P48736); experiment: Inhibition of PI3K gamma (unknown origin) using PIP2 as substrate measured after 1 hr in presence of ATP by ADP-glo luminescence assay
[3] = target: T1, Phosphatidylinositol 4,5-bisphosphate 3-kinase catalytic subunit delta isoform (Homo sapiens, UniProt O00329); experiment: Inhibition of PI3K delta (unknown origin) using PIP2 as substrate measured after 1 hr in presence of ATP by ADP-glo luminescence assay
T1 sequence (O00329 whole entry): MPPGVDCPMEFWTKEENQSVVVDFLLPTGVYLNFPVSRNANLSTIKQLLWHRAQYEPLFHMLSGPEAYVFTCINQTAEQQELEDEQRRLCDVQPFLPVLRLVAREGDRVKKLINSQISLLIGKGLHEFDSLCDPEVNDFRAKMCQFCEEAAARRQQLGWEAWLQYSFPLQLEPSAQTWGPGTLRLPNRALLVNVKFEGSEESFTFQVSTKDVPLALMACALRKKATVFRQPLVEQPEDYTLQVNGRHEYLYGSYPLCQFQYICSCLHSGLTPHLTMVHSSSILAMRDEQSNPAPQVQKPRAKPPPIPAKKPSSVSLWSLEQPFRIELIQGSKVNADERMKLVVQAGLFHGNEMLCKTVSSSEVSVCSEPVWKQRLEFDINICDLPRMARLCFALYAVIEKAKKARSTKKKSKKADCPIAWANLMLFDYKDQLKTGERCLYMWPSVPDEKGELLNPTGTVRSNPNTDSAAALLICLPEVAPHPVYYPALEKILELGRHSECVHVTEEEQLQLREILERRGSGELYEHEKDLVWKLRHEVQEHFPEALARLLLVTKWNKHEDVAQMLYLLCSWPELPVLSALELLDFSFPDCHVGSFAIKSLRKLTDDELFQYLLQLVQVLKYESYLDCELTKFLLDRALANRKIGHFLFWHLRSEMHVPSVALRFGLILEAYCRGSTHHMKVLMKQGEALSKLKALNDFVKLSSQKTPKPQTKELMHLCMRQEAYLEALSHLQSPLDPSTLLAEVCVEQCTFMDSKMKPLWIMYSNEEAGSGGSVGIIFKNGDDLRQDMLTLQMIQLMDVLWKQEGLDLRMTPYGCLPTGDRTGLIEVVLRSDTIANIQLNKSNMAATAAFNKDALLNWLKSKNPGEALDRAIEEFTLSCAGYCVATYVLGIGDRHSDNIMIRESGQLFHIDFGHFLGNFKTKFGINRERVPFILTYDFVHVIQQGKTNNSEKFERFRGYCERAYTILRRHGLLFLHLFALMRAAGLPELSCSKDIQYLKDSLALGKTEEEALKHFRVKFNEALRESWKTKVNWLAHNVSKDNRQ

[4] = target: T2, CYP1A2 (Homo sapiens, UniProt P05177); experiment: Inhibition of CYP1A2 (unknown origin) at 10 uM relative to control; format: ADME
T2 sequence (P05177 whole entry): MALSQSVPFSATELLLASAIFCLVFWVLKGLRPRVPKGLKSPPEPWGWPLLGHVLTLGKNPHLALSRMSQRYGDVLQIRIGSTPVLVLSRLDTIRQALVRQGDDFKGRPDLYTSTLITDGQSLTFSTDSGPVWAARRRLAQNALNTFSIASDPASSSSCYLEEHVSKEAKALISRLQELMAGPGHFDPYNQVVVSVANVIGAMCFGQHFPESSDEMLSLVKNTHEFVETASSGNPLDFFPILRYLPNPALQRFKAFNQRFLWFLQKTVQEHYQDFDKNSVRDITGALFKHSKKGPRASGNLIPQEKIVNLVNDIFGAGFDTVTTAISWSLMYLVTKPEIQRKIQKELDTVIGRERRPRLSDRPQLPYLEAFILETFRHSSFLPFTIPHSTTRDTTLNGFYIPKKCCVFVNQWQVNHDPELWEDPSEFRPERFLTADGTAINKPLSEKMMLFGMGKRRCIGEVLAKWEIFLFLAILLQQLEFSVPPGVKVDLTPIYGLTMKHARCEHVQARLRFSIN

[5] = target: Phosphatidylinositol 4,5-bisphosphate 3-kinase catalytic subunit beta isoform (Homo sapiens, UniProt P42338); experiment: Inhibition of PI3Kbeta (unknown origin) using PIP2 as substrate measured after 1 hr in presence of ATP by ADP-glo luminescence assay
[6] = target: CYP3A4 (Homo sapiens, UniProt P08684); experiment: Inhibition of CYP3A4 (unknown origin) at 10 uM relative to control; format: ADME
[7] = target: CYP2D6 (Homo sapiens, UniProt P10635); experiment: Inhibition of CYP2D6 (unknown origin) at 10 uM relative to control; format: ADME
[8] = target: Serine/threonine-protein kinase mTOR (Homo sapiens, UniProt P42345); experiment: Inhibition of mTOR (unknown origin) using ULight-4E-BP1 as substrate measured after 45 mins in presence of ATP by Lance ultra assay
[9] = target: hERG (KCNH2) (Homo sapiens, UniProt Q12809); experiment: Inhibition of human ERG at 20 uM relative to control; format: toxicity
[10] = target: Phosphatidylinositol 4,5-bisphosphate 3-kinase catalytic subunit alpha isoform (Homo sapiens, UniProt P42336)
Description: Inhibition of PI3Kalpha (unknown origin) using PIP2 as substrate measured after 1 hr in presence of ATP by ADP-glo luminescence assay

[11] = test system: HCC827; experiment: Antiproliferative activity against human HCC827 cells measured after 48 hrs by MTT assay; format: functional, cell-based; settings: HCC827, 48 h
[12] = test system: PC-9; experiment: Antiproliferative activity against human PC-9 cells measured after 48 hrs by MTT assay; format: functional, cell-based; settings: PC-9, 48 h
[13] = Toxicity in nude male Balb/c mouse assessed as effect on body weight at 20 mg/kg, po administered daily for 2 weeks; format: organism-based; settings: in vivo, 336 h
[14] = Toxicity in 8 hrs fasted ICR mouse assessed as effect on blood glucose level at 20 mg/kg, iv measured upto 240 mins by glucometer analysis; format: organism-based; settings: in vivo, 4 h

Phosphatidylinositol 4,5-bisphosphate 3-kinase catalytic subunit gamma isoform, sequence (P48736 whole entry, canonical isoform): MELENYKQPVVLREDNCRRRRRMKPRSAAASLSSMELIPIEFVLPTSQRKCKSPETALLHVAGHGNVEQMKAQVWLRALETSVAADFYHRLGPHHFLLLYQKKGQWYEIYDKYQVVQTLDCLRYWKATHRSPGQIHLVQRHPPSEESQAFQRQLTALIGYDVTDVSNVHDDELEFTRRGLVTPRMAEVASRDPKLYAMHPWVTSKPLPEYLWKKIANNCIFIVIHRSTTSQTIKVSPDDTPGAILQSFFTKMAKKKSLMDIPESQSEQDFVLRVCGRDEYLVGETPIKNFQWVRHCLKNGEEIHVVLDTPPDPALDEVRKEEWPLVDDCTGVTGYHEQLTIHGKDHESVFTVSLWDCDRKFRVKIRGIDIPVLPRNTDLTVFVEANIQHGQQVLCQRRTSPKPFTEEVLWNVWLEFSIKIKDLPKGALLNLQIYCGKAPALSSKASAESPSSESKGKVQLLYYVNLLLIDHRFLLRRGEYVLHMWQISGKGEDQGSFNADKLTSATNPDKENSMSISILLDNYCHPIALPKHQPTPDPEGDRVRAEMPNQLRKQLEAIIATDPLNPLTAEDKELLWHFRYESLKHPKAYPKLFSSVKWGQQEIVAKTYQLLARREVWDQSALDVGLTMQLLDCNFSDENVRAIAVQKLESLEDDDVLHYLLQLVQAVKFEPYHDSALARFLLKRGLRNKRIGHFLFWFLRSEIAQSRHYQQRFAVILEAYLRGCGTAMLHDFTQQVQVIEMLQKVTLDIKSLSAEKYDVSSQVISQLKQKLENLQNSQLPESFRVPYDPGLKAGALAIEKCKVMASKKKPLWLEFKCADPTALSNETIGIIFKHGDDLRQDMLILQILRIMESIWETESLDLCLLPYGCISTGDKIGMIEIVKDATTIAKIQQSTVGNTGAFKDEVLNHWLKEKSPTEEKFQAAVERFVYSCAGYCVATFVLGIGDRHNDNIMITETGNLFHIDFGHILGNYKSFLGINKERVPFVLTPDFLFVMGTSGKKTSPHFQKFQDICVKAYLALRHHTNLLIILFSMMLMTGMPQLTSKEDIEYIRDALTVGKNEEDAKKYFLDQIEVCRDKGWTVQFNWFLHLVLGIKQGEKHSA
Phosphatidylinositol 4,5-bisphosphate 3-kinase catalytic subunit alpha isoform, sequence (P42336 whole entry, canonical isoform): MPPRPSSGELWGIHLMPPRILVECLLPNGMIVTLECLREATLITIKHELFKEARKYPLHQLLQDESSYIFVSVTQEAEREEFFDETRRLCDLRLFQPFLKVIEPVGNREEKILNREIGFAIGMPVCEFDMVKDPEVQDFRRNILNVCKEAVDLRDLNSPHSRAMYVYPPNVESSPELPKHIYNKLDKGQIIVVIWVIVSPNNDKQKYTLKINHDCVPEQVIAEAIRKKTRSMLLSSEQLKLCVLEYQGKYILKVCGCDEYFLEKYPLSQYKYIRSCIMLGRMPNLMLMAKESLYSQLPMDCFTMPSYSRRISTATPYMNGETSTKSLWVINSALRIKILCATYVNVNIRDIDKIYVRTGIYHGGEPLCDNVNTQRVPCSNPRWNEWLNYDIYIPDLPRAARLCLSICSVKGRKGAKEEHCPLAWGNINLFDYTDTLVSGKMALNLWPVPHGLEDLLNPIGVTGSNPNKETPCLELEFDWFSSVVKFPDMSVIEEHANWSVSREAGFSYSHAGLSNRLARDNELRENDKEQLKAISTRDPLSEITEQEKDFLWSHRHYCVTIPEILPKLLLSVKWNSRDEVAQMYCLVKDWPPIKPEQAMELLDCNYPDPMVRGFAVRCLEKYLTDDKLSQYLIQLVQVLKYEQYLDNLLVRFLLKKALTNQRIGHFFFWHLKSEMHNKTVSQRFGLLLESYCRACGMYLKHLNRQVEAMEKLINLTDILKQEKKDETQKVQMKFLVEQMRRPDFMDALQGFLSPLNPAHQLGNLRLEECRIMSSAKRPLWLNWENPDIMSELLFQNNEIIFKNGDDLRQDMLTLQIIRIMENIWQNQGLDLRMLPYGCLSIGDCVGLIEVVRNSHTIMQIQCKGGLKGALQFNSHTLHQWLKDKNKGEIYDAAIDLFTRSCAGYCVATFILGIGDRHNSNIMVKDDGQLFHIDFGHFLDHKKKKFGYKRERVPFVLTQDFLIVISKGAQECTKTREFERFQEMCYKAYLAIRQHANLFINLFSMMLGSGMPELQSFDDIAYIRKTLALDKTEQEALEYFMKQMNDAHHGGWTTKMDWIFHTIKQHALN
Phosphatidylinositol 4,5-bisphosphate 3-kinase catalytic subunit beta isoform, sequence (P42338 whole entry, canonical isoform): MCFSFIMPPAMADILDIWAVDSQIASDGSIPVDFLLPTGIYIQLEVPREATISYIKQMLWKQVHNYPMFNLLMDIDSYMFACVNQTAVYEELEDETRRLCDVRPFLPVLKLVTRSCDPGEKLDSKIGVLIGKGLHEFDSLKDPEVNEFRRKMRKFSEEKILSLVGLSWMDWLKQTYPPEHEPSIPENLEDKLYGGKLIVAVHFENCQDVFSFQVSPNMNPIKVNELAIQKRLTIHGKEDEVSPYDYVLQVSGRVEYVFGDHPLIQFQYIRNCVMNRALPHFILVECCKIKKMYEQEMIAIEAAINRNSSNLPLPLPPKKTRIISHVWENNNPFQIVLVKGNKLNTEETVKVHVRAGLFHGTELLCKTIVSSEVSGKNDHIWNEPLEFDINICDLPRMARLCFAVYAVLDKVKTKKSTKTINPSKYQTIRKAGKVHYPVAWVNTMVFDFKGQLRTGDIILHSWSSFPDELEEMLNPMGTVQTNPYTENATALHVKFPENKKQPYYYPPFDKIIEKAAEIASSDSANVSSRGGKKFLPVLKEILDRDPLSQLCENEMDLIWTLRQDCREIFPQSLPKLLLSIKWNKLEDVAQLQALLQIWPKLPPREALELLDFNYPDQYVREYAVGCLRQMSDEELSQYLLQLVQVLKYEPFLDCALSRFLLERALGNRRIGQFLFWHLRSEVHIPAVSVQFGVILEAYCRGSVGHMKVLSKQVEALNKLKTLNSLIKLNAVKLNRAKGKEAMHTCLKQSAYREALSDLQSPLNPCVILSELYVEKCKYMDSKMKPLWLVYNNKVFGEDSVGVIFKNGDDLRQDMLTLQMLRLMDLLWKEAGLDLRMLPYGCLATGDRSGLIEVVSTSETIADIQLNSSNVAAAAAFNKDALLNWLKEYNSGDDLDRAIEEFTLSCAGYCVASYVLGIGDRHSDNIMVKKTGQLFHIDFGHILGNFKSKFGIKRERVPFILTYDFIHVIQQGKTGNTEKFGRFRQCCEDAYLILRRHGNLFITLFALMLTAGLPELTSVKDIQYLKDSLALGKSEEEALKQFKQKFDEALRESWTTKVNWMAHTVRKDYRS
hERG (KCNH2), sequence (Q12809 whole entry, canonical isoform): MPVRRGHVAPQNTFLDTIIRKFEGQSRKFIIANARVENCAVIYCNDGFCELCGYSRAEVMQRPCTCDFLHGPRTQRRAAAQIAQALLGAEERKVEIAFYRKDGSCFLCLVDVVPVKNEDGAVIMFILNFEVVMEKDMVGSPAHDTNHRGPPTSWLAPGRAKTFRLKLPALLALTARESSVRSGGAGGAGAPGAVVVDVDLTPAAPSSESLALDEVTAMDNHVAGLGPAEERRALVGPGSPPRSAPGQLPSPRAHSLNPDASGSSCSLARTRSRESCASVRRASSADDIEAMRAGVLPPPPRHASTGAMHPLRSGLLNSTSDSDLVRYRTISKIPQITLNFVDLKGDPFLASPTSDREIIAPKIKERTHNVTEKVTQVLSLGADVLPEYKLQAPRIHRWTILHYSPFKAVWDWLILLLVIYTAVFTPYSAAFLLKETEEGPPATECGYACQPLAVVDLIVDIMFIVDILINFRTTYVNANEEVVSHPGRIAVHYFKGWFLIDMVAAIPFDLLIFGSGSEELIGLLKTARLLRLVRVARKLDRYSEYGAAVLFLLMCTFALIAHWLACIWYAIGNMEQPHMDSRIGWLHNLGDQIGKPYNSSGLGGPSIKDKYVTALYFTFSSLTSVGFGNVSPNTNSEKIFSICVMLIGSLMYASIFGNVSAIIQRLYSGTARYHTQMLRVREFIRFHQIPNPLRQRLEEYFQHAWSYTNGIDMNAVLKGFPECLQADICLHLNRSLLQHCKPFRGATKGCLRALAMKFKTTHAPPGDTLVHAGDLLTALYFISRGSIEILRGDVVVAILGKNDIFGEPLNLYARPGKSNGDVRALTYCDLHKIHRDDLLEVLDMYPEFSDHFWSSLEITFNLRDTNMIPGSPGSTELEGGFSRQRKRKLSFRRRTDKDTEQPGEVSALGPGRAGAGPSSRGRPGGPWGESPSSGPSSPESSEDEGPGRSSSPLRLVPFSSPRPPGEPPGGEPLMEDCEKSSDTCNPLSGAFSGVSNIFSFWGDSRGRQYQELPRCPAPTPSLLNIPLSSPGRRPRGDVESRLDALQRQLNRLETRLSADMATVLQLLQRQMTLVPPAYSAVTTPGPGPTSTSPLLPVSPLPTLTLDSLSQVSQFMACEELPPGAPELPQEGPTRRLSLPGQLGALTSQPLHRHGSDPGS
CYP3A4, sequence (P08684 whole entry): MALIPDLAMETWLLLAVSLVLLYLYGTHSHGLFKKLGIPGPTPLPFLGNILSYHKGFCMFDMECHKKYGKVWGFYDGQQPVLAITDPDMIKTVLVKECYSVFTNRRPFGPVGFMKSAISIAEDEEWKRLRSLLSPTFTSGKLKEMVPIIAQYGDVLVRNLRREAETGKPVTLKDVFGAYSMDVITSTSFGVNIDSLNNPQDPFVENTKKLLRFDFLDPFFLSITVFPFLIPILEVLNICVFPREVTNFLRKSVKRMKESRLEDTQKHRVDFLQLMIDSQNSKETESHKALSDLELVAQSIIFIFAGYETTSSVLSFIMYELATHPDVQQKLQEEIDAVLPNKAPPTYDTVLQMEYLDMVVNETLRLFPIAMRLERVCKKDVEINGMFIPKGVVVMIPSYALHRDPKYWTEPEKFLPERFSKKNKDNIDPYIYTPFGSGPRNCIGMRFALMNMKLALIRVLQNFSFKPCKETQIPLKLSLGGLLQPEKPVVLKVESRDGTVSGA

IC50 [2] | IC50 [3] | IC50 [5] | IC50 [8] | IC50 [10] | Structure (SMILES) | further results
4.8 nM | 9.3 nM | 1.1 nM | 2.9 nM | – | O=C(Nc1ccc(C(=O)N2CCC[C@H]2CO)cc1)Nc1ccc(-c2nc(N3CCOCC3)nc(N3CCOCC3)n2)cc1 | inhibition at 10 µM [1]: 15%; inhibition at 10 µM [4]: 10%; inhibition at 10 µM [6]: 20%; inhibition at 10 µM [7]: 25%; inhibition at 20 µM [9]: 15%
– | – | – | – | 20.3 nM | O=C(c1ccc(NC(=S)Nc2ccc(-c3nc(N4CCOCC4)nc(N4CCOCC4)n3)cc2)cc1)N1CCN(C(=O)C2CCCO2)CC1 (stereo unspecified) | IC50 [11]: 19.8 µM; IC50 [12]: 32.7 µM
– | – | – | – | – | CN(C)C1CCN(C(=O)c2ccc(NC(=O)Nc3ccc(-c4nc(N5CCOCC5)nc(N5CCOCC5)n4)cc3)cc2)CC1 [GEDATOLISIB] | Activity [13]: Non-toxic; Activity [14]: Toxic
32.3 nM | 34.1 nM | 42.5 nM | 4.9 nM | – | O=C(Nc1ccc(C(=O)N2CCC[C@@H]2CO)cc1)Nc1ccc(-c2nc(N3CCOCC3)nc(N3CCOCC3)n2)cc1 | –
123 nM | 106 nM | 35.4 nM | 24.3 nM | – | O=C(c1ccc(NC(=S)Nc2ccc(-c3nc(N4CCOCC4)nc(N4CCOCC4)n3)cc2)cc1)N1CCC[C@H]1CO | –
657 nM | 338 nM | 169 nM | 127 nM | – | CN1CCN(C(=O)c2ccc(NC(=S)Nc3ccc(-c4nc(N5CCOCC5)nc(N5CCOCC5)n4)cc3)cc2)CC1 | –
0.86 nM | – | – | – | – | COc1ncc(-c2ccc3nccc(-c4ccnnc4)c3c2)cc1NS(=O)(=O)c1ccc(F)cc1F [OMIPALISIB] | –
– | – | – | – | 36.6 nM | O=C(c1ccc(NC(=S)Nc2ccc(-c3nc(N4CCOCC4)nc(N4CCOCC4)n3)cc2)cc1)N1CCCC(CO)C1 (stereo unspecified) | IC50 [11]: 1.98 µM; IC50 [12]: 4.32 µM
– | – | – | – | 70.4 nM | O=C(c1ccc(NC(=S)Nc2ccc(-c3nc(N4CCOCC4)nc(N4CCOCC4)n3)cc2)cc1)N1CCCCC1CO (stereo unspecified) | –
